Test results taken from patent US20090246276A1, “Pharmaceutical Compositions” (priority 2008, published 2009).
Structures can show the parent of a compound that is named as a salt.

Experiments:
[1] = In-vitro dissolution, 900 ml medium (0.1N HCl, pH 4.5 acetate buffer, pH 6.8 or pH 7.5 phosphate buffer), USP Apparatus 1, 75 rpm, 37° C.; format: physicochemical
Procedure: The dissolution profile of the above pharmaceutical composition was determined under the dissolution conditions described below in Tables 1A, 1B, and 1C.

[2] = Solubility (37° C.) in 0.1N HCl, pH 4.5, pH 6.8; format: physicochemical; design: Solubility (37° C.): unit not given here; conditions: hydrobromide

CC(NC(C)(C)C)C(=O)c1cccc(Cl)c1 (stereo not shown) [Bupropion HBr, bupropion hydrobromide]
% Released ([1]; Example 1 tablet, 0.1N HCl, 1 hr): 12% | % Released ([1]; Example 1 tablet, 0.1N HCl, 2 hr): 29% | % Released ([1]; Example 1 tablet, 0.1N HCl, 3 hr): 45% | % Released ([1]; Example 1 tablet, 0.1N HCl, 4 hr): 59% | % Released ([1]; Example 1 tablet, 0.1N HCl, 5 hr): 73% | % Released ([1]; Example 1 tablet, 0.1N HCl, 6 hr): 84% | % Released ([1]; Example 1 tablet, 0.1N HCl, 7 hr): 93% | % Released ([1]; Example 1 tablet, 0.1N HCl, 8 hr): 100% | % Released ([1]; Example 1 tablet, 0.1N HCl, 9 hr): 103% | % Released ([1]; Example 1 tablet, 0.1N HCl, 10 hr): 104% | % Released ([1]; Example 1 tablet, 0.1N HCl, 11 hr): 104% | % Released ([1]; Example 1 tablet, 0.1N HCl, 12 hr): 104% | % Released ([1]; Example 1 tablet, 0.1N HCl, 13 hr): 103% | % Released ([1]; Example 1 tablet, 0.1N HCl, 14 hr): 103% | % Released ([1]; Example 1 tablet, pH 4.5 acetate buffer, 1 hr): 12% | % Released ([1]; Example 1 tablet, pH 4.5 acetate buffer, 2 hr): 28% | % Released ([1]; Example 1 tablet, pH 4.5 acetate buffer, 3 hr): 43% | % Released ([1]; Example 1 tablet, pH 4.5 acetate buffer, 4 hr): 57% | % Released ([1]; Example 1 tablet, pH 4.5 acetate buffer, 5 hr): 70% | % Released ([1]; Example 1 tablet, pH 4.5 acetate buffer, 6 hr): 81% | % Released ([1]; Example 1 tablet, pH 4.5 acetate buffer, 7 hr): 91% | % Released ([1]; Example 1 tablet, pH 4.5 acetate buffer, 8 hr): 98% | % Released ([1]; Example 1 tablet, pH 4.5 acetate buffer, 9 hr): 103% | % Released ([1]; Example 1 tablet, pH 4.5 acetate buffer, 10 hr): 105% | % Released ([1]; Example 1 tablet, pH 4.5 acetate buffer, 11 hr): 106% | % Released ([1]; Example 1 tablet, pH 4.5 acetate buffer, 12 hr): 106% | % Released ([1]; Example 1 tablet, pH 4.5 acetate buffer, 13 hr): 106% | % Released ([1]; Example 1 tablet, pH 4.5 acetate buffer, 14 hr): 106% | % Released ([1]; Example 1 tablet, pH 4.5 acetate buffer, 15 hr): 105% | % Released ([1]; Example 1 tablet, pH 4.5 acetate buffer, 16 hr): 105% | % Released ([1]; Example 1 tablet, pH 6.8 phosphate buffer, 1 hr): 12% | % Released ([1]; Example 1 tablet, pH 6.8 phosphate buffer, 2 hr): 27% | % Released ([1]; Example 1 tablet, pH 6.8 phosphate buffer, 3 hr): 42% | % Released ([1]; Example 1 tablet, pH 6.8 phosphate buffer, 4 hr): 56% | % Released ([1]; Example 1 tablet, pH 6.8 phosphate buffer, 5 hr): 69% | % Released ([1]; Example 1 tablet, pH 6.8 phosphate buffer, 6 hr): 80% | % Released ([1]; Example 1 tablet, pH 6.8 phosphate buffer, 7 hr): 88% | % Released ([1]; Example 1 tablet, pH 6.8 phosphate buffer, 8 hr): 95% | % Released ([1]; Example 1 tablet, pH 6.8 phosphate buffer, 9 hr): 98% | % Released ([1]; Example 1 tablet, pH 6.8 phosphate buffer, 10 hr): 100% | % Released ([1]; Example 1 tablet, pH 6.8 phosphate buffer, 11 hr): 100% | % Released ([1]; Example 1 tablet, pH 6.8 phosphate buffer, 12 hr): 100% | % Released ([1]; Example 1 tablet, pH 6.8 phosphate buffer, 13 hr): 101% | % Released ([1]; Example 1 tablet, pH 6.8 phosphate buffer, 14 hr): 100% | % Released ([1]; Example 1 tablet, pH 6.8 phosphate buffer, 15 hr): 99% | % Released ([1]; Example 1 tablet, pH 6.8 phosphate buffer, 16 hr): 99% | % Released ([1]; Example 2 tablet, 0.1N HCl, 1 hr): 12% | % Released ([1]; Example 2 tablet, 0.1N HCl, 2 hr): 29% | % Released ([1]; Example 2 tablet, 0.1N HCl, 4 hr): 61% | % Released ([1]; Example 2 tablet, 0.1N HCl, 8 hr): 100% | % Released ([1]; Example 2 tablet, 0.1N HCl, 12 hr): 103% | % Released ([1]; Example 2 tablet, pH 4.5 acetate buffer, 1 hr): 12% | % Released ([1]; Example 2 tablet, pH 4.5 acetate buffer, 2 hr): 28% | % Released ([1]; Example 2 tablet, pH 4.5 acetate buffer, 4 hr): 57% | % Released ([1]; Example 2 tablet, pH 4.5 acetate buffer, 8 hr): 97% | % Released ([1]; Example 2 tablet, pH 4.5 acetate buffer, 16 hr): 101% | % Released ([1]; Example 2 tablet, pH 6.8 phosphate buffer, 1 hr): 11% | % Released ([1]; Example 2 tablet, pH 6.8 phosphate buffer, 2 hr): 27% | % Released ([1]; Example 2 tablet, pH 6.8 phosphate buffer, 4 hr): 55% | % Released ([1]; Example 2 tablet, pH 6.8 phosphate buffer, 8 hr): 94% | % Released ([1]; Example 2 tablet, pH 6.8 phosphate buffer, 12 hr): 97% | % Released ([1]; Example 2 tablet, pH 6.8 phosphate buffer, 16 hr): 96% | % Released ([1]; Example 3 tablet, 0.1N HCl, 1 hr): 13% | % Released ([1]; Example 3 tablet, 0.1N HCl, 2 hr): 31% | % Released ([1]; Example 3 tablet, 0.1N HCl, 4 hr): 62% | % Released ([1]; Example 3 tablet, 0.1N HCl, 12 hr): 104% | % Released ([1]; Example 3 tablet, 0.1N HCl, 16 hr): 103% | % Released ([1]; Example 3 tablet, pH 4.5 acetate buffer, 1 hr): 12% | % Released ([1]; Example 3 tablet, pH 4.5 acetate buffer, 2 hr): 28% | % Released ([1]; Example 3 tablet, pH 4.5 acetate buffer, 4 hr): 58% | % Released ([1]; Example 3 tablet, pH 4.5 acetate buffer, 8 hr): 99% | % Released ([1]; Example 3 tablet, pH 4.5 acetate buffer, 12 hr): 103% | % Released ([1]; Example 3 tablet, pH 6.8 phosphate buffer, 1 hr): 11% | % Released ([1]; Example 3 tablet, pH 6.8 phosphate buffer, 2 hr): 27% | % Released ([1]; Example 3 tablet, pH 6.8 phosphate buffer, 4 hr): 57% | % Released ([1]; Example 3 tablet, pH 6.8 phosphate buffer, 8 hr): 98% | % Released ([1]; Example 3 tablet, pH 6.8 phosphate buffer, 12 hr): 100% | % Released ([1]; Example 3 tablet, pH 6.8 phosphate buffer, 16 hr): 99% | % Released ([1]; Example 4 tablet, 0.1N HCl, 1 hr): 11% | % Released ([1]; Example 4 tablet, 0.1N HCl, 2 hr): 27% | % Released ([1]; Example 4 tablet, 0.1N HCl, 4 hr): 56% | % Released ([1]; Example 4 tablet, 0.1N HCl, 8 hr): 97% | % Released ([1]; Example 4 tablet, 0.1N HCl, 12 hr): 105% | % Released ([1]; Example 4 tablet, 0.1N HCl, 16 hr): 103% | % Released ([1]; Example 5 tablet, 0.1N HCl, 1 hr): 9% | % Released ([1]; Example 5 tablet, 0.1N HCl, 2 hr): 20% | % Released ([1]; Example 5 tablet, 0.1N HCl, 4 hr): 43% | % Released ([1]; Example 5 tablet, 0.1N HCl, 8 hr): 82% | % Released ([1]; Example 5 tablet, 0.1N HCl, 12 hr): 98% | % Released ([1]; Example 5 tablet, 0.1N HCl, 16 hr): 99% | % Released ([1]; Example 6 tablet, 0.1N HCl, 1 hr): 13% | % Released ([1]; Example 6 tablet, 0.1N HCl, 2 hr): 30% | % Released ([1]; Example 6 tablet, 0.1N HCl, 4 hr): 61% | % Released ([1]; Example 6 tablet, 0.1N HCl, 8 hr): 98% | % Released ([1]; Example 6 tablet, 0.1N HCl, 12 hr): 100% | % Released ([1]; Example 6 tablet, 0.1N HCl, 16 hr): 100% | % Released ([1]; Example 7 tablet, 0.1N HCl, 1 hr): 2% | % Released ([1]; Example 7 tablet, 0.1N HCl, 8 hr): 36% | % Released ([1]; Example 7 tablet, 0.1N HCl, 12 hr): 57% | % Released ([1]; Example 7 tablet, 0.1N HCl, 16 hr): 74% | Solubility (37° C.) ([2]; 0.1N HCl): 190 | Solubility (37° C.) ([2]; pH 4.5): 180 | Solubility (37° C.) ([2]; pH 6.8): 200
